Source: US9878007B2, “Syndecan peptides and polypeptides as inhibitors of vascular endothelial growth factor receptor-2 (VEGFR2) and very late antigen-4 (VLA-4)” (Wisconsin Alumni Research Foundation, priority 2015, dated 2018)

Experiments:
CAG myeloma cells [1] = test: Cell spreading / attachment assay of CAG myeloma cells on FN or VCAM-1; type: cell-based, human
HMEC-1 cells [2] = test: In vitro tube formation assay of HMEC-1 cells on Matrigel; type: cell-based; conditions: 24 hrs, 10 μM peptides
Procedure: (§1) FIGS. 8A-H. HPSE mediated the Sdc1-coupled VEGFR2 complex in endothelial cells induces angiogenesis. (FIG. 8A) Lysates from HPSE^low, HPSE^high and HMEC-1 cells are probed by immunoblotting for expression of HPSE. (FIG. 8B) HMEC-1 cells were seeded at equal density and grown in serum-free media for 24 hr in the absence or presence of 125 μg/ml of the HPSE inhibitor SST0001. After 24 hr, conditioned media were harvested, and the level of shed Sdc1 in the conditioned medium from each condition was determined by immunoblotting. (FIG. 8C) HMEC-1 cell lysate was incubated overnight with glutathione beads coated with GST or GST-S1ED. Capture of VLA-4 or VEGFR2 was detected by immunoblotting. (FIG. 8D) HMEC-1 cells were plated on IIICS for 3 hr and double stained for VLA-4 and Sdc1, VEGFR2 and Sdc1, or VLA-4 and VEGFR2. (FIG. 8E) HMEC-1 cells were treated with DMSO, VLA-4 blocking antibody P1H4, β1-integrin blocking antibody mAb13, 10 μg/ml MMP9 blocking antibody, 125 μg/ml HPSE inhibitor SST0001, Vandetanib, VEGFR2 blocking antibody, 30 μM S1ED^210-233 or 30 μM S1ED^214-240 and then plated on IIICS. Images were taken from random field with 200× magnification for counting attached and spread cells. (FIG. 8F) HMEC-1 cells were plated on IIICS in the presence of 10 μM of S1ED^210-236, S1ED^210-233, S1ED^215-240, and S1ED^214-240. Lysates were probed on immunoblots with antibodies against pY^1175 VEGFR2 and VEGFR2. (FIG. 8G) Transwell migration assays towards IIICS (for 16 hr) were performed for HMEC-1 cells in the presence of P1H4, SST0001, Anti-MMP9, Vandetanib, S1ED^210-236, S1ED^210-233, and S1ED^214-240. Images were taken from random field with 200× magnification for counting migrated cells. (FIG. 8H) A 96-well plate coated with 50 μl Matrigel containing 100 μg/ml IIICS per well was solidified at 37° C. for 2 hrs. HMEC-1 cells (2.5×10^4 cells/well) were seeded into the plate and cultured in media containing VEGF, SST0001, 10 μM of S1ED^210-236, S1ED^210-233, S1ED^215-240, and S1ED^214-240 for 24 hrs. Enclosed capillary networks of tubes were taken from random field with 200× magnification.

HMEC-1 cells [3] = test: Attachment and spreading of HMEC-1 cells on IIICS; type: cell-based; conditions: plated on IIICS; 30 μM peptides, 125 μg/ml SST0001, 10 μg/ml MMP9 blocking antibody
Procedure: FIGS. 8A-H. HPSE mediated the Sdc1-coupled VEGFR2 complex in endothelial cells induces angiogenesis. (FIG. 8A) Lysates from HPSE^low, HPSE^high and HMEC-1 cells are probed by immunoblotting for expression of HPSE. (FIG. 8B) HMEC-1 cells were seeded at equal density and grown in serum-free media for 24 hr in the absence or presence of 125 μg/ml of the HPSE inhibitor SST0001. After 24 hr, conditioned media were harvested, and the level of shed Sdc1 in the conditioned medium from each condition was determined by immunoblotting. (FIG. 8C) HMEC-1 cell lysate was incubated overnight with glutathione beads coated with GST or GST-S1ED. Capture of VLA-4 or VEGFR2 was detected by immunoblotting. (FIG. 8D) HMEC-1 cells were plated on IIICS for 3 hr and double stained for VLA-4 and Sdc1, VEGFR2 and Sdc1, or VLA-4 and VEGFR2. (FIG. 8E) HMEC-1 cells were treated with DMSO, VLA-4 blocking antibody P1H4, β1-integrin blocking antibody mAb13, 10 μg/ml MMP9 blocking antibody, 125 μg/ml HPSE inhibitor SST0001, Vandetanib, VEGFR2 blocking antibody, 30 μM S1ED^210-233 or 30 μM S1ED^214-240 and then plated on IIICS. Images were taken from random field with 200× magnification for counting attached and spread cells. (FIG. 8F) HMEC-1 cells were plated on IIICS in the presence of 10 μM of S1ED^210-236, S1ED^210-233, S1ED^215-240, and S1ED^214-240. […]

HMEC-1 cells [4] = test: Transwell migration / invasion assay of HMEC-1 cells; type: cell-based; conditions: 16 hr
Procedure: as §1, with “HMEC-1 cells (2.5×10^4 cells/well) were seeded into the plate and cultured in media containing VEGF, SST0001, 10 μM of S1ED^210-236, S1ED^210-233, S1ED^215-240, and S1ED^214-240 for 24 hrs. Enclosed capillary networks of tubes were taken from random field with 200× magnification.” left out
The bottom chambers of Transwell filter chambers (8 μm pores; Corning) were coated with 40 μg/ml of FN. […] Cells from at least five random fields were counted.

CAG myeloma cells [5] = test: Cell spreading / attachment assay of CAG myeloma cells on FN or VCAM-1; type: cell-based, human; remark: listed apart in the source
Procedure: Nitrocellulose-coated slides were coated for 2 hr at 37° C. with 40 μg/ml FN (kindly provided by Dr. Donna Peters, University of Wisconsin-Madison) or 5 μg/ml recombinant VCAM-1/Fc chimera (R&D Systems) in calcium and magnesium-free PBS (CMF-PBS; 135 mM NaCl, 2.7 mM KCl, 10.2 mM Na2HPO4-7H20 and 1.75 mM KH2PO4, pH7.4). Slides were blocked for 1 hr at 37° C. with RPMI 1640 containing 1% heat-denatured BSA (plating medium). Cells in plating medium were allowed to attach and spread for 2.5 hr at 37° C. Slides were fixed in 4% EM grade paraformaldehyde (Electron Microscopy Sciences) in CMF-PBS and labeled for 30 min in 0.13 μM rhodamine phalloidin (Invitrogen) in CMF-PBS. Coverslips were mounted in non-fluorescing mounting medium (Immumount; Thermo Shandon) and allowed to dry. All images were acquired with a Nikon Microphot FX microscope using a 20× objective (Nikon; Ex 541-551, DM 580, Barrier 590), Photometric CoolSnap ES camera, and version 7.7.3.0 Metamorph© Imaging software (Molecular Devices). All images represent results from triplicate wells and at least three independent experiments.

VLA-4 = target: T1, VLA-4 (Homo sapiens, UniProt P05556+P13612); test: GST pull down assay: capture of VLA-4 by GST-S1ED; type: binding; conditions: HPSE^low cell lysates; peptide 30 M [sic]
T1 construct: the α4-integrin (VLA-4), which is expressed on myeloma cells; endogenous in cells; host or cells: CAG human myeloma cells (HPSE^low), whole-cell lysate
Procedure: (§2) FIGS. 6A-G. Peptides derived from the active site in Sdc1 activate or inhibit adhesion and invasion. (FIG. 6A) Transwell migration assays towards FN (for 16 hrs) were performed for HPSE low or high cells in the presence of 0, 0.3, 3, and 30 μM of S1ED^210-240. Cells migrating to the bottom side of the filter were counted from five random images for each treatment. (FIG. 6B) The sequence of S1ED210-240 is shown (SEQ ID NO: 3), as well as […] truncation mutants of the peptide (SEQ ID NOs: 5, 2, 4 and 7). Amino acids shown in red appear necessary for the spreading and invasive activity. (FIG. 6C) Images of HPSE^low and HPSE^high cells plated on FN for 2 hr. (FIG. 6D) HPSE^low cells were treated with 0, 0.3, 3, 10 and 30 μM of S1ED^210-236, S1ED^210-233, or S1ED^214-240, plated on FN for 2 hr, fixed and stained with fluorescent phalloidin. Cells from five random images were quantified for cell attachment and cell spreading. (FIG. 6E) HPSE^high cells were treated with 0, 3, 10, and 30 μM of S1ED^210-236, S1ED^210-233, and S1ED^214-240, plated on FN for 2 hr, then fixed, imaged and quantified as in FIG. 6D. (FIG. 6F) Transwell migration assays towards FN (for 16 hr) were performed for HPSE^low or HPSE^high cells in the presence of 30 μM of S1ED^210-236, S1ED^210-233, S1ED^214-240 and Vandetanib. (FIG. 6G) HPSE^low cell lysates were incubated overnight with glutathione beads coated with GST or GST-S1ED in the absence or presence of 30 μM of S1ED^210-236, S1ED^210-233, and S1ED^214-240. Capture of VLA-4 or VEGFR2 was detected by immunoblotting. Sequences in FIG. 6B are 210-240 (SEQ ID NO: 3), 210-236 (SEQ ID NO: 2), 210-233 (SEQ ID NO: 4), 214-240 (SEQ ID NO: 5) and 214-236 (SEQ ID NO: 7).
(§3) CAG cells were washed with CMF-PBS and then lysed for 20 min on ice in lysis buffer. Cell debris was removed by centrifugation at 13000 rpm for 20 min at 4° C. Whole cell lysates were then incubated at 4° C. overnight with either 3 μM GST or 3 μM GST-S1ED in the absence or presence of 1 μM, 3 μM, and 10 μM S1ED^210-240 peptide. GST or GST-S1ED was captured by addition of glutathione Sepharose and the beads were washed with ice-cold lysis buffer and CMF-PBS, prior to addition of SDS-PAGE sample buffer and analyszed by electrophoresis and western blotting as described previously.

VEGFR2 = target: T2, VEGFR2 (Homo sapiens, UniProt P35968); test: GST pull down assay: capture of VEGFR2 by GST-S1ED; type: binding; conditions: HPSE^low cell lysates; peptide 30 M [sic]
T2 construct: endogenous in cells; host or cells: CAG human myeloma cells (HPSE^low = empty vector; HPSE^high = human HPSE cDNA)
Procedure: as §2, §3

[6] = on FN, 2 hr, 0, 3, 10 and 30 μM peptide

T2 sequence (P35968 20-1356): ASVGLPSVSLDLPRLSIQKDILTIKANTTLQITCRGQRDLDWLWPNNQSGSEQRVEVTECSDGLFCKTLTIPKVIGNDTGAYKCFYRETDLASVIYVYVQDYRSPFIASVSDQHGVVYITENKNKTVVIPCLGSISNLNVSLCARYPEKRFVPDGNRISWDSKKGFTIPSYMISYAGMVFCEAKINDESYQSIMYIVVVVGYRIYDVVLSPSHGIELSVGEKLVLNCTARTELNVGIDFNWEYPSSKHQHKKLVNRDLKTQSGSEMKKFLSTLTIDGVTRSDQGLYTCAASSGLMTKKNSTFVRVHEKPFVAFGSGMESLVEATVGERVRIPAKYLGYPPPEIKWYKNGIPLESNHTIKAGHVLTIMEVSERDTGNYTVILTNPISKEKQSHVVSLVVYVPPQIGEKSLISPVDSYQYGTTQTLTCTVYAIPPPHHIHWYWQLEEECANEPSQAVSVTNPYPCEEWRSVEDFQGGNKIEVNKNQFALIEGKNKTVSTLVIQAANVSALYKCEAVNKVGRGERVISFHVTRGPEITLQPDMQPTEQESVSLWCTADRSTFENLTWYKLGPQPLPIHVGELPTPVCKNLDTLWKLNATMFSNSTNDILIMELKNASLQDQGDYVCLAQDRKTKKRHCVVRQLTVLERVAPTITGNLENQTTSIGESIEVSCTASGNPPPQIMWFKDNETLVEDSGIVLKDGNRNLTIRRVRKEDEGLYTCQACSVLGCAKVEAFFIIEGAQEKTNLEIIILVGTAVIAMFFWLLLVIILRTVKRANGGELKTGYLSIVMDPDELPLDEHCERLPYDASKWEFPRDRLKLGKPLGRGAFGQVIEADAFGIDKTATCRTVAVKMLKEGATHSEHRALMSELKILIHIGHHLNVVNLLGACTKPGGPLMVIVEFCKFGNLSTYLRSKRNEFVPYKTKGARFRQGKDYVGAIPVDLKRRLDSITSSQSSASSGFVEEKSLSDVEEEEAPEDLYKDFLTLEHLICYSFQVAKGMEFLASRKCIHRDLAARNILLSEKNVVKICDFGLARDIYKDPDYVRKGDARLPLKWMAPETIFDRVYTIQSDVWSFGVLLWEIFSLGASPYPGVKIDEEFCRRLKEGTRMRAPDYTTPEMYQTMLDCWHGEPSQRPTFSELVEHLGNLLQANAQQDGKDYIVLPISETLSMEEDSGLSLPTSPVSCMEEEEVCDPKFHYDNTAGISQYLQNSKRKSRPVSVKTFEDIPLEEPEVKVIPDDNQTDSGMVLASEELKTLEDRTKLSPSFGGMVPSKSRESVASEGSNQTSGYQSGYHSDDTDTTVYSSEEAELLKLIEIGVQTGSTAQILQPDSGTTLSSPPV
T1 sequence (P13612 34-1032): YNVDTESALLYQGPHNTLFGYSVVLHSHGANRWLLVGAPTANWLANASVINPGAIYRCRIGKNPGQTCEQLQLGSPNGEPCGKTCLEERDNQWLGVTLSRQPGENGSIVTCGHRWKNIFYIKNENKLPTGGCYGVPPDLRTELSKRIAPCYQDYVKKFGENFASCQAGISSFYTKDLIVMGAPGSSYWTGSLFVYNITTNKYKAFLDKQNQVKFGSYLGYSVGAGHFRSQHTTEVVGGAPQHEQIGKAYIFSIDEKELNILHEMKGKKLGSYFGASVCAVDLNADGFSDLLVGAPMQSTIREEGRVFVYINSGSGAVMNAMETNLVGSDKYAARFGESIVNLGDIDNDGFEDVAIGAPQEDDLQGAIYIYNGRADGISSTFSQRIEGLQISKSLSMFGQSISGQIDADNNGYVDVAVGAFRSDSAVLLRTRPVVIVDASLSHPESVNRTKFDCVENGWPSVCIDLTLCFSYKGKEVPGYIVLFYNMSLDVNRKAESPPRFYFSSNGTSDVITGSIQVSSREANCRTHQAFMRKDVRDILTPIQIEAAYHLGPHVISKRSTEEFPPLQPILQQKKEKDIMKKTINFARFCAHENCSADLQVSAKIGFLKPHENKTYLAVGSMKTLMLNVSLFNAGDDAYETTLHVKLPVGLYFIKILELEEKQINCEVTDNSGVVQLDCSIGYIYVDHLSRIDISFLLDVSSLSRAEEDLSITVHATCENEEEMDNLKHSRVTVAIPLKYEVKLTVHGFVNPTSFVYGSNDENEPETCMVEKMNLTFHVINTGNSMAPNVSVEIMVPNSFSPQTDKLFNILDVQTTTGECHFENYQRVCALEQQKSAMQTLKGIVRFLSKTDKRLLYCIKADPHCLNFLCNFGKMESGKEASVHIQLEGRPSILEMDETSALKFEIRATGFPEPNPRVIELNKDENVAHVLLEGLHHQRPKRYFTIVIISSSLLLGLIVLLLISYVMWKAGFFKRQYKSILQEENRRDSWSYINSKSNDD
T1 sequence (P05556 21-798): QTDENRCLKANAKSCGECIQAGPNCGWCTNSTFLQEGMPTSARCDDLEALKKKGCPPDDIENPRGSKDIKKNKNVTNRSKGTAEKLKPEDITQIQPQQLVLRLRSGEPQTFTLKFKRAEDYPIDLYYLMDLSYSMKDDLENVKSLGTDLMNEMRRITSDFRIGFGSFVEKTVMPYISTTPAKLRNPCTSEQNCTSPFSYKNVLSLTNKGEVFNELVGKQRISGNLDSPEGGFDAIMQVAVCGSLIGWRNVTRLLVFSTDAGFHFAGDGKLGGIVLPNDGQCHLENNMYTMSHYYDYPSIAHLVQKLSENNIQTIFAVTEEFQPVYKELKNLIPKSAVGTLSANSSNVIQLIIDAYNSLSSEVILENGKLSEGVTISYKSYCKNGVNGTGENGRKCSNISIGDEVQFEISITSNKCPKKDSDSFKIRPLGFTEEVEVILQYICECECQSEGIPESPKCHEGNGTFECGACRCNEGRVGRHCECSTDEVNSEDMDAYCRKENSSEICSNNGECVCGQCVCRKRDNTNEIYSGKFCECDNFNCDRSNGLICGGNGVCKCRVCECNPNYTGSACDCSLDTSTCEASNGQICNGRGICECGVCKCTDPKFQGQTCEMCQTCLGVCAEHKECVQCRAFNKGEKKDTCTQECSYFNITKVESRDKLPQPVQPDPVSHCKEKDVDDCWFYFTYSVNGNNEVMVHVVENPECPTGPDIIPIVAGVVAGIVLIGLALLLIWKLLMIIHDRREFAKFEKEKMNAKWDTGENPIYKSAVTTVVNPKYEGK

For VEGF [reference compound], the “induction of HPSE^low cell spreading by VEGF” value (CAG myeloma cells [1]; 20 ng/ml VEGF) was “failed to induce spreading of the cells” and the “tube formation by HMEC-1 cells” value (HMEC-1 cells [2]) was “not enhanced by VEGF”.

In the case of “S1ED^214-240: syndecan-1 ectodomain peptide, residues 214-240 (SEQ ID NO: 5) (ETSGENTAVVAVEPDRRNQSPVDQGAT)”, the “HPSE^low cell spreading” value (CAG myeloma cells [1]; on FN, 2 hr, 0, 0.3, 3, 10 and 30 μM peptide) is reported as “does not cause cell spreading”, the “HPSE^high cell adhesion” value (CAG myeloma cells [1]; [6]) is reported as “has no effect on cell adhesion” and the “HPSE^high cell spreading” value (CAG myeloma cells [1]; [6]) is reported as “blocks the spreading of HPSE^high cells”. For the same molecule, the “HPSE^low cell adhesion” value (CAG myeloma cells [1]; on FN, 2 hr, high concentrations (30 μM)) was “does not cause cell spreading or block adhesion”, the “VLA-4 dependent spreading of HMEC-1 cells” value (HMEC-1 cells [3]) was “prevented” and the “invasion of HMEC-1 cells” value (HMEC-1 cells [4]) was “all block invasion”. The “induction of HPSE^low cell spreading by S1ED peptides” value (CAG myeloma cells [5]; on VCAM-1, 0.3 μM peptide) was “do not”, the “competition for capture of VLA-4 by GST-S1ED” value (VLA-4) was “only competes for capture of VEGFR2” and the “competition for capture of VEGFR2 by GST-S1ED” value (VEGFR2) was “only competes for capture of VEGFR2”. The “tube formation by HMEC-1 cells” value (HMEC-1 cells [2]) was “blocks tube formation”.

B1: HPIII: heparinase III, a bacterial enzyme that completely degrades the HS (protein, UniProt Q59289 25-659, looked up)
Heparin-sulfate lyase: QSSSITRKDFDHINLEYSGLEKVNKAVAAGNYDDAAKALLAYYREKSKAREPDFSNAEKPADIRQPIDKVTREMADKALVHQFQPHKGYGYFDYGKDINWQMWPVKDNEVRWQLHRVKWWQAMALVYHATGDEKYAREWVYQYSDWARKNPLGLSQDNDKFVWRPLEVSDRVQSLPPTFSLFVNSPAFTPAFLMEFLNSYHQQADYLSTHYAEQGNHRLFEAQRNLFAGVSFPEFKDSPRWRQTGISVLNTEIKKQVYADGMQFELSPIYHVAAIDIFLKAYGSAKRVNLEKEFPQSYVQTVENMIMALISISLPDYNTPMFGDSWITDKNFRMAQFASWARVFPANQAIKYFATDGKQGKAPNFLSKALSNAGFYTFRSGWDKNATVMVLKASPPGEFHAQPDNGTFELFIKGRNFTPDAGVFVYSGDEAIMKLRNWYRQTRIHSTLTLDNQNMVITKARQNKWETGNNLDVLTYTNPSYPNLDHQRSVLFINKKYFLVIDRAIGEATGNLGVHWQLKEDSNPVFDKTKNRVYTTYRDGNNLMIQSLNADRTSLNEEEGKVSYVYNKELKRPAFVFEKPKKNAGTQNFVSIVYPYDGQKAPEISIRENKGNDFEKGKLNLTLTINGKQQLVLVP
In the case of B1, the “induction of HPSE^low cell spreading” value (CAG myeloma cells [5]; heparinase III pre-treatment before plating on FN and VCAM-1) is reported as “induces spreading of HPSE^low cells comparable to that observed for HPSE^high cells”.
